According to article PMC9775191, “A Subset Screen of the Compounds Australia Scaffold Library Identifies 7-Acylaminodibenzoxazepinones as Potent and Selective Hits for Anti-Giardia Drug Discovery” (Biomedicines, 2022):

Test system: G. duodenalis BRIS/91/HEPU/1279
Assay: Primary Giardia screen at 10 µM (live-cell imaging, automated counting)
Type: cell-based, Giardia duodenalis
Details: for % Inhibition n=1 48h / % Inhibition n=1 24h: first singlicate assay; for % Inhibition n=2 24h / % Inhibition n=2 48h: re-assessment
How it was run: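 Percent growth versus 0.2% DMSO vehicle, background-corrected with media-only wells, is reported at 24 and 48 h from automated live-cell counts. Testing used 10 μM final in a 3% O2 atmosphere, with plate quality checked by Z' factor.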

Compound | % Inhibition n=1 48h | also measured
O=C(Cc1csc(N2CCCNC2=O)n1)Nc1ccccc1OC(F)F [SN00781228] | 8.7% | 
O=C(CCn1ccn2nc(-c3ccccc3Cl)cc2c1=O)NCc1ccc(F)cc1 [SN00799415] | 0.0% | 
O=C(Nc1cccc(F)c1)c1nnc(C2CCCN2C(=O)Nc2cccc(C(F)(F)F)c2)s1 (stereo not drawn) [SN00790473] | 8.5% | 
COc1ccc(S(=O)(=O)N(C)c2ccsc2C(=O)NCCC(C)C)cc1 [SN00797030] | 10.4% | 
COC(=O)C(C)n1cnc2c(nnn2Cc2ccccc2F)c1=O (stereo not drawn) [SN00802558] | 11.4% | 
Cn1nc(C(=O)NCc2ccc3c(c2)OCO3)c2c1CCN(C(=O)C1CCCC1)C2 [SN00789838] | 7.0% | 
COc1ccc(C(NC(=O)CN2CCN(Cc3n[nH]c(C)n3)CC2)C(C)C)cc1 (stereo not drawn) [SN00782152] | 0.6% | 
Cc1ccc(-c2noc(-c3ccc(N4CCN(Cc5ccc6c(c5)OCO6)CC4)nc3)n2)cc1 [SN00796635] | 7.2% | 
CC1CCN(c2nc(C(=O)NCCc3ccncc3)nc3c2cnn3C)CC1 [SN00800416] | 9.4% | 
Cc1ccc(S(=O)(=O)NC(C)c2nc(-c3cccc(C(=O)N4CCCC4)c3)no2)cc1 (stereo not drawn) [SN00789753] | 5.7% | 
CCc1ccc(-n2ccc(=O)c(-c3nc(-c4cccc(Cl)c4)no3)n2)cc1 [SN00798039] | 4.9% | 
CN1CCN(CC2CCN(c3ccc([N+](=O)[O-])cc3Cl)CC2)CC1 [SN00781176] | 33.0% | 
CCc1ccc(-c2cc(C(=O)N3CCN(c4c(C)n(-c5ccccc5)c(=O)n(C)c4=O)CC3)[nH]n2)cc1 [SN00790031] | 0.0% | 
O=C(NCc1ccco1)N1CC2C3CCC(C3)C21 (stereo not drawn) [SN00773389] | 2.6% | 
CC(=O)N1CCc2cc(C(=O)CN3CC(C)CC(C)C3)ccc21 (stereo not drawn) [SN00785210] | 19.3% | 
Cc1cccc(NC(=O)Cn2c(=O)n(-c3ccc(F)cc3)c(=O)c3c(C)c(C(=O)N(C)C)sc32)c1 [SN00794395] | 21.9% | 
COCC1CN(C(=O)c2ccc(OC)cc2)CC12CCOCC2 (stereo not drawn) [SN00801332] | 24.3% | 
NC(=O)C1CCN(C(=O)c2snc(C(=O)NCc3ccccc3)c2N)CC1 [SN00797750] | 8.9% | 
COc1ccc(S(=O)(=O)N2CCN(c3cc(=O)n4nc(-c5ccccc5C)sc4n3)CC2)cc1 [SN00789606] | 10.6% | 
Cn1ncc2c(=O)[nH]c(CN3CCN(c4cnccn4)CC3)nc21 [SN00807797] | 0.0% | 
O=C1COc2ccc(Cl)cc2N1Cc1nc(Cn2cnc3ccccc3c2=O)no1 [SN00789336] | 0.0% | 
COc1ccc(OCC(=O)N2CCN(Cc3ccc(C)cc3)c3ncccc32)cc1 [SN00790421] | 6.7% | 
COc1ccc(NC(=O)N2CCN(c3cc(C)nc(N4CCOCC4)n3)CC2)cc1 [SN00786878] | 44.4% | 
Cc1nc2sccn2c1-c1nc(-c2ccccc2)c(C(=O)c2ccc3c(c2)NC(=O)CO3)s1 [SN00776123] | 7.0% | 
CN(CCCN)C(=O)c1ccc2c(=O)n3c(nc2c1)CCCCC3 [SN00785585] | 25.4% | 

Compound | % Inhibition n=1 48h | also measured
O=C([C@H]1C[C@H]2CCCN2[C@@]12C(=O)Nc1ccccc12)N1CCN(c2ccccc2)CC1 [SN00787657] | 16.0% | 
COC(=O)C1=C(C)N(C(C)C)C(=O)C1(NC(=O)C1CCCCC1)C(F)(F)F (stereo not drawn) [SN00784094] | 0.0% | 
CCCc1cc(=O)n2nc(N(C)CC(=O)NCCCN3CCCC3=O)sc2n1 [SN00785642] | 4.1% | 
O=C(c1ccc[nH]c1=S)N1CCCC(CN2CCN(c3ccccn3)CC2)C1 (stereo not drawn) [SN00780166] | 0.0% | 
Cc1scc2nc(C(N)=O)nc(N3CCCC3)c12 [SN00801956] | 22.6% | 
COc1ccc(C(C)(C)C)cc1S(=O)(=O)N1CCN(c2nc(C)cc(N3CCOCC3)n2)CC1 [SN00793559] | 5.9% | 
O=S(=O)(Cc1ccc(C(F)(F)F)cc1)Cc1noc(C2CC2)n1 [SN00781153] | 0.0% | 
COc1ccc(S(=O)(=O)Nc2cc3c(cc2NCc2ccccc2)n(C)c(=O)n3C)cc1OC [SN00784765] | 14.1% | 
Cn1nc(C(=O)NCCCN2CCN(c3ccccc3)CC2)c2c1-c1ccccc1OC2 [SN00787244] | 0.0% | 
Cc1nn(-c2ccccc2)c2c1C(C(=O)NC1CCCC1)N(c1ccc(F)cc1F)C(=O)CS2 (stereo not drawn) [SN00791377] | 1.8% | 
CCn1nnc2c(C(=O)NCCC3=CCCCC3)c(C)sc2c1=O [SN00799184] | 2.6% | 
O=C(c1ccc(F)cc1)N1CCc2[nH]nc(C(=O)N3CCN(c4ccc(F)cc4)CC3)c2C1 [SN00802630] | 0.9% | 
O=C(Nc1ccc(N2CCn3c(nc4cc(Cl)ccc43)C2)cc1)NC1CCCCC1 [SN00786562] | 10.0% | 
Cc1cnc(CN2CCOC(CNc3cccnn3)C2)o1 (stereo not drawn) [SN00775722] | 13.5% | 
CC(C)c1csc(-c2ccc(S(=O)(=O)NCc3ccc(Cl)cc3)s2)n1 [SN00798864] | 0.0% | 
O=C(CCC(=O)N1CCCC1c1nc2ccccc2[nH]1)c1ccccc1 (stereo not drawn) [SN00776900] | 28.7% | 
Cc1sc(=O)n(CCC(=O)N2CCC(C)CC2c2ccco2)c1C (stereo not drawn) [SN00783298] | 0.0% | 
Cc1c(C(=O)O)sc2ncnc(NC3CCCCCC3)c12 [SN00793181] | 3.6% | 
Cc1ccc(CN2CCN(C(=O)C3CCC3)c3cccnc32)cc1 [SN00790417] | 4.2% | 
Cc1nn(C)c(C)c1CC(C)NC(=O)NCC1CN2CCCC2CO1 (stereo not drawn) [SN00783221] | 15.6% | 
COc1cccc(C(=O)NC2(C(F)(F)F)C(=O)N(Cc3ccccc3)C(C)=C2C(C)=O)c1 (stereo not drawn) [SN00784101] | 2.9% | 
O=c1[nH]c(CN2CCCCC2)nc2scc(-c3cccs3)c12 [SN00775605] | 0.0% | 
CC1(C)Cc2nc3[nH]c(=O)n(Cc4ccco4)c(=O)c3cc2CO1 [SN00786536] | 7.3% | 
CCN(c1cccc(C)c1)S(=O)(=O)c1cc(-c2nc(C)c(C)s2)sc1C [SN00797239] | 10.7% | 
COc1ccc(OC)c(CNC(=O)c2ccc(N3CCOc4ccccc43)s2)c1 [SN00791505] | 9.9% | 

Compound | % Inhibition n=1 48h | also measured
CC(C)c1ccc(S(=O)(=O)N2CCN(c3cc(=O)n4nc(-c5ccccc5)sc4n3)CC2)cc1 [SN00789595] | 0.0% | 
COc1ccc(S(=O)(=O)N2CCN(Cc3ccc(C)cc3)c3ncccc32)cc1 [SN00790428] | 10.3% | 
CCCN1CCN(C(=O)C2=C(C)C(=O)OC23CCN(S(=O)(=O)CC)CC3)CC1 [SN00791149] | 0.0% | 
CCCNC(=O)c1cn(C)nc1S(=O)(=O)N1CCC(C)CC1 [SN00798692] | 3.5% | 
CCN1CCc2[nH]c3ccc(NC(=O)c4ccn(CC)n4)cc3c2C1 [SN00798224] | 1.1% | 
Cc1c(C)n(-c2ccccc2)c2ncnc(N3CCC(C)CC3)c12 [SN00789013] | 35.2% | 
Cn1nc(-c2nnc(-c3ccccc3Cl)o2)c2c1CCN(C(=O)c1ccc(F)c(F)c1)C2 [SN00796834] | 25.5% | Average % Inhibition 24h: 6.4%; % Inhibition n=1 24h: 12.9%; % Inhibition n=2 24h: 0.0%; Average % Inhibition 48h: 12.8%; % Inhibition n=2 48h: 0.0%
Cc1ccc(C)c(OC2CCN(c3ncnc4nc[nH]c34)CC2)c1 [SN00780571] | 12.5% | 
Cc1ccc(S(=O)(=O)N2CCN(C)c3ccccc32)cc1 [SN00795395] | 8.6% | 
CCC(C)(NCc1ncc(-c2cccs2)o1)c1nccs1 (stereo not drawn) [SN00783193] | 26.6% | 
O=C(NCC1(c2ccccc2)CCOCC1)c1ccc(Br)cc1 [SN00783501] | 61.1% | Average % Inhibition 24h: 8.8%; % Inhibition n=1 24h: 16.8%; % Inhibition n=2 24h: 0.9%; Average % Inhibition 48h: 37.7%; % Inhibition n=2 48h: 14.4%
COc1ccc(-c2csc(-n3nccc3C(F)(F)F)n2)cc1OC [SN00776140] | 27.9% | 
CN(C)[C@@H]1CN(C(=O)c2ccco2)CC[C@]1(O)c1ccccc1 [SN00801222] | 3.1% | 
Cc1ccc(-c2nc(C)sc2CC(=O)N2CCN(Cc3nc(N)c4ccccc4n3)CC2)cc1 [SN00778718] | 9.0% | 
Cc1cccc(-n2c(CN3CCN(C(=O)NCC4CCCO4)CC3)nc3cccnc32)c1 (stereo not drawn) [SN00796109] | 0.7% | 
CCc1nc(-c2cc(S(=O)(=O)N(C)c3cccc(C)c3)c(C)s2)no1 [SN00789104] | 48.8% | Average % Inhibition 24h: 14.2%; % Inhibition n=1 24h: 28.4%; % Inhibition n=2 24h: 0.0%; Average % Inhibition 48h: 30.8%; % Inhibition n=2 48h: 12.8%
CCCCS(=O)(=O)N1CCC2(CC1)CC2c1nc(-c2cccc(Cl)c2)no1 (stereo not drawn) [SN00782685] | 0.0% | 
Cc1cccc(-c2noc(Cn3cccn3)n2)c1 [SN00782358] | 0.0% | 
O=S(=O)(c1ccc(Cl)cc1)N1CCC(c2nc(-c3c(Cl)cccc3Cl)no2)CC1 [SN00779695] | 11.2% | 
Cc1ccccc1NC(=O)c1ccc2c(c1)CCN2S(C)(=O)=O [SN00785973] | 31.2% | 
Cc1ccc(OCC(=O)NCC2(N3CCN(C)CC3)CCCCC2)cc1 [SN00786260] | 9.4% | 
COc1cc(CNCCNC(=O)c2nonc2N)ccc1OCc1ccc(F)cc1 [SN00784068] | 0.0% | 
Cn1cc(CN2C(=O)NC(C)(c3ccco3)C2=O)cn1 (stereo not drawn) [SN00774074] | 16.2% | 
Cc1ccccc1C(=O)N[C@@H]1CCCC[C@H]1NC(=O)C1CCCN(C(=O)c2ccc(Cl)cc2)C1 (stereo partly drawn) [SN00802559] | 3.9% | 
O=C(Cn1c(-c2cccnc2)noc1=O)NCC1CCCO1 (stereo not drawn) [SN00781423] | 0.0% | 
